In US5597829A, “Lactone stable formulation of camptothecin and methods for uses thereof” (priority 1994, dated 1997):
Entries after “also recorded” stand apart in the source; their conditions may differ.

Assays:
LD1210 leukemia = details: 10-100 mg/kg intraperitoneally; cited from earlier work
[1] = tested on: Topoisomerase I purified from human colon carcinoma cells or calf thymus; details: cited from earlier work
[2] = pH below 7.0; cited from earlier work
[3] = human, in vivo; cited from earlier work
[4] = human, in vivo; cited from earlier work; remark: listed apart in the source
L1210 cells = details: cited from earlier work
[5] = Predicted outcome of administering lactone stable CPT to patients; type: in vivo, human
From the text: The novel features of the present invention include the following: (1) pharmaceutically acceptable formulations which allow the direct parenteral administration of lactone stable CPT to human subjects with cancer, (2) pharmaceutically acceptable formulations which allow the direct oral administration of lactone stable CPT to human subjects with cancer, and (3) dosages and schedules for the administration of lactone stable CPT to patients with cancer by parenteral and oral routes of administration. […] The inventors predict that by administering the carboxylate species of CPT a higher incidence of renal toxicity is observed than would be observed if the lactone species of CPT were administered.
Inventors claim that reason previous use of sodium CPT caused hemorrhagic cystitis relates to the enhanced renal excretion of the carboxylate form of CPT which when exposed to the lower pH (~pH 5) of the distal convoluted tubule in the kidney, the carboxylate form of CPT is converted to the lactone form of CPT. […] Elimination of CPT by the renal route is enhanced by administration of the carboxylate form and is reduced by administration of the lactone form.

[6] = tested on: topoisomerase I-cleaved DNA complex; details: cited from earlier work
[7] = gastrointestinal cancer; cited from earlier work
[8] = Oral absorption / bioavailability; type: in vivo; details: with taurocholic acid or salt in solution dosage composition
From the text: Taurocholic acid, a bile acid, may enhance in the intestinal absorption of the drug in certain patients. […] It is believed that this is due to the formation of a micellar solution of CPT on dilution thereof with the gastric contents.
Analogous to that of etoposide, it is believed that ingestion of the present dosage form of CPT and resulting dilution thereof by the stomach contents, results in the formation of a micellar solution of CPT in the stomach which is readily absorbed by the gastrointestinal tract.

DNA = details: in vitro cells; cited from earlier work

CC[C@@]1(O)C(=O)OCc2c1cc1n(c2=O)Cc2cc3ccccc3nc2-1 [CPT, camptothecin]
T/C (treated/control) ratios (LD1210 leukemia): superior T/C (treated/control) ratios relative to mice treated in the same manner with 7-ethyl camptothecin (ECPT) and 10-hydroxy 7-ethyl camptothecin (HECPT); also recorded: inferior to that of CPT-11 administration under the same conditions
inhibition of topoisomerase I [1]: inhibited
form predominating [2]: closed form of CPT predominates
cystitis as nonhematologic toxic effect [3]: Cystitis was another toxic effect occurring frequently
excretion [3]: excreted unchanged by the kidneys
toxicity in clinical trials [4]: unpredictable myelosuppression and hemorrhagic cystitis
unexplained protein-free breaks (L1210 cells): an increase in unexplained protein-free breaks can be detected
renal elimination of CPT ([5]; oral or parenteral, lactone form, expected): minimal
frequency of hemorrhagic cystitis relative to sodium CPT ([5]; predicted): significantly reduced
stabilization of the cleavable complex [6]: only the closed lactone form of the drug helps stabilize the cleavable complex
investigators' conclusion on toxicity and clinical value [7]: a drug of protean and unpredictable toxicity that has no clinical value
absorption following ingestion [8]: improved absorption of the drug following ingestion
nature of DNA strand breaks (DNA): Virtually all of the DNA strand breaks observed in vitro cells treated with CPT are protein linked
